# The source made the active and inactive calls. No cut-off for these calls is given here.
# Experiments:
# [1] = tested on: Staphylococcus aureus; assay: Antibacterial activity against methicillin/ciprofloxacin/gentamicin/clindamycin-resistant Staphylococcus aureus USA200 NRS383 clinical isolate after 18 to 20 hrs by broth microdilution method; assay type: functional
# [2] = tested on: Staphylococcus aureus; assay: Bactericidal activity against methicillin/ciprofloxacin/clindamycin-resistant Staphylococcus aureus USA100 NRS382 clinical isolate after 24 hrs; assay type: functional; conditions: USA100 NRS382, 24 h
# [3] = tested on: Staphylococcus aureus; assay: Antibacterial activity against methicillin/ciprofloxacin/clindamycin-resistant Staphylococcus aureus USA100 NRS382 clinical isolate after 18 to 20 hrs by broth microdilution method; assay type: functional
# [4] = tested on: Staphylococcus aureus; assay: Antibacterial activity against methicillin-resistant Staphylococcus aureus 2658 RCMB after 18 to 20 hrs by broth microdilution method; assay type: functional
# [5] = tested on: Staphylococcus aureus; assay: Bactericidal activity against methicillin/ciprofloxacin/gentamicin/clindamycin-resistant Staphylococcus aureus USA200 NRS383 clinical isolate after 24 hrs; assay type: functional; conditions: USA200 NRS383, 24 h
# [6] = tested on: Staphylococcus aureus; assay: Bactericidal activity against methicillin-resistant Staphylococcus aureus USA400 NRS123 clinical isolate after 24 hrs; assay type: functional; conditions: USA400 NRS123, 24 h
# [7] = tested on: Staphylococcus aureus; assay: Antibacterial activity against vancomycin-resistant Staphylococcus aureus VRSA10 clinical isolate after 18 to 20 hrs by broth microdilution method; assay type: functional
# [8] = tested on: Staphylococcus aureus; assay: Antibacterial activity against methicillin/erythromycin/tetracycline-resistant Staphylococcus aureus USA300 NRS384 clinical isolate after 18 to 20 hrs by broth microdilution method; assay type: functional
# [9] = tested on: Staphylococcus aureus; assay: Antibacterial activity against mupirocin/rifampicin-resistant Staphylococcus aureus RN4220 NRS107 clinical isolate after 18 to 20 hrs by broth microdilution method; assay type: functional
# [10] = tested on: Staphylococcus aureus; assay: Bactericidal activity against methicillin/erythromycin/tetracycline-resistant Staphylococcus aureus USA300 NRS384 clinical isolate after 24 hrs; assay type: functional; conditions: USA300 NRS384, 24 h
# [11] = tested on: Staphylococcus aureus; assay: Bactericidal activity against vancomycin-resistant Staphylococcus aureus VRSA4 clinical isolate after 24 hrs; assay type: functional; conditions: VRSA4, 24 h
# [12] = tested on: Staphylococcus aureus; assay: Bactericidal activity against mupirocin/rifampicin-resistant Staphylococcus aureus RN4220 NRS107 clinical isolate after 24 hrs; assay type: functional; conditions: RN4220 NRS107, 24 h
# [13] = tested on: Staphylococcus aureus; assay: Bactericidal activity against vancomycin-resistant Staphylococcus aureus VRSA10 clinical isolate after 24 hrs; assay type: functional; conditions: VRSA10, 24 h
# [14] = tested on: Staphylococcus aureus; assay: Antibacterial activity against vancomycin-resistant Staphylococcus aureus VRSA4 clinical isolate after 18 to 20 hrs by broth microdilution method; assay type: functional
# [15] = tested on: Staphylococcus aureus; assay: Antibacterial activity against methicillin-resistant Staphylococcus aureus USA400 NRS123 clinical isolate after 18 to 20 hrs by broth microdilution method; assay type: functional
# [16] = Intrinsic clearance in human liver microsomes after 10 to 60 mins in absence of NADPH by LC/MS/MS analysis; assay type: ADME, microsome; conditions: read-out: CLH
# [17] = Intrinsic clearance in human liver microsomes after 10 to 60 mins in presence of NADPH by LC/MS/MS analysis; assay type: ADME, microsome; conditions: read-out: CLH
# [18] = tested on: Staphylococcus aureus; assay: Bactericidal activity against methicillin-resistant Staphylococcus aureus USA400 NRS123 clinical isolate assessed as reduction of bacterial load at 4 times MIC after 24 hrs by time kill assay; assay type: functional
# [19] = tested on: Staphylococcus aureus; assay: Antibacterial activity against methicillin-resistant Staphylococcus aureus USA400 NRS123 clinical isolate infected in mouse J774 cells assessed as reduction of bacterial load at 16 ug/ml after 24 hrs relative to control; assay type: functional
Structure (SMILES),MIC [1],MBC [2],MIC [3],MIC [4],MBC [5],MBC [6],MIC [7],MIC [8],MIC [9],MBC [10],MBC [11],MBC [12],MBC [13],MIC [14],MIC [15],microsomal CLint [16],microsomal CLint [17],Activity [18],Activity [19]
CCC(CC)COc1ccc(-c2nc(C)c(/C(C)=N/NC(=N)N)s2)cc1,32 µg/mL,32 µg/mL,32 µg/mL,7.81 µg/mL,> 64 µg/mL,–,–,–,–,–,–,–,–,–,–,–,–,–,–
C/C(=N\NC(=N)N)c1sc(-c2ccc(OCC(C)C)cc2)nc1C,8 µg/mL,16 µg/mL,8 µg/mL,15.6 µg/mL,8 µg/mL,> 32 µg/mL,16 µg/mL,16 µg/mL,32 µg/mL,32 µg/mL,32 µg/mL,32 µg/mL,32 µg/mL,16 µg/mL,16 µg/mL,–,–,–,–
CCCCCCCCCOc1ccc(-c2nc(C)c(/C(C)=N/NC(=N)N)s2)cc1,4 µg/mL,8 µg/mL,–,> 30 µg/mL,8 µg/mL,16 µg/mL,16 µg/mL,16 µg/mL,16 µg/mL,16 µg/mL,16 µg/mL,16 µg/mL,16 µg/mL,16 µg/mL,16 µg/mL,–,–,–,–
C/C(=N\NC(=N)N)c1sc(-c2ccc(OCCCC(C)C)cc2)nc1C,4 µg/mL,2 µg/mL,2 µg/mL,15.6 µg/mL,16 µg/mL,32 µg/mL,16 µg/mL,16 µg/mL,16 µg/mL,32 µg/mL,16 µg/mL,16 µg/mL,16 µg/mL,16 µg/mL,16 µg/mL,–,–,–,–
CCOc1ccc(-c2nc(C)c(/C(C)=N/NC(=N)N)s2)cc1,–,–,–,> 30 µg/mL,–,–,–,–,–,–,–,–,–,–,–,–,–,–,–
CCCCCOc1ccc(-c2nc(C)c(/C(C)=N/NC(=N)N)s2)cc1,64 µg/mL,–,–,1.95 µg/mL,> 64 µg/mL,–,–,–,–,–,–,–,–,–,–,–,–,–,–
C/C=C/COc1ccc(-c2nc(C)c(/C(C)=N/NC(=N)N)s2)cc1,16 µg/mL,128 µg/mL,16 µg/mL,15.6 µg/mL,> 64 µg/mL,> 32 µg/mL,32 µg/mL,32 µg/mL,32 µg/mL,> 32 µg/mL,32 µg/mL,32 µg/mL,32 µg/mL,32 µg/mL,32 µg/mL,–,–,–,–
CC(=O)CC(c1ccccc1)c1c(O)c2ccccc2oc1=O (stereo not drawn) [WARFARIN],–,–,–,–,–,–,–,–,–,–,–,–,–,–,–,< 9.6 µL/min/mg,< 9.6 µL/min/mg,–,–
CN[C@H](CC(C)C)C(=O)N[C@H]1C(=O)N[C@@H](CC(N)=O)C(=O)N[C@H]2C(=O)N[C@H]3C(=O)N[C@H](C(=O)N[C@H](C(=O)O)c4cc(O)cc(O)c4-c4cc3ccc4O)[C@H](O)c3ccc(c(Cl)c3)Oc3cc2cc(c3O[C@@H]2O[C@H](CO)[C@@H](O)[C@H](O)[C@H]2O[C@H]2C[C@](C)(N)[C@H](O)[C@H](C)O2)Oc2ccc(cc2Cl)[C@H]1O [VANCOMYCIN],–,< 1 µg/mL,< 1 µg/mL,1.95 µg/mL,0.5 µg/mL,0.5 µg/mL,> 512 µg/mL,–,–,1 µg/mL,> 512 µg/mL,1 µg/mL,> 512 µg/mL,> 512 µg/mL,–,–,–,Active,inactive
